Earlier results, collected in PMC3010278 (Journal of medicinal chemistry, 2010).

Test system: QR1
Conditions: in vivo

Compound: C[S+]([O-])CCCCN=C=S (stereo not shown) [Compound 54, sulforaphane]
- QR1 induction in rat mammary gland: induce QR1
